{"source": "patent US20220008382A1", "about": "“ALCOHOL ANTIDOTE” (Evanium Healthcare GmbH, priority 2018, published 2022)", "key": {"[1]": {"assay": "Solubility of the solid dispersion with Eudragit E in 0.1 N HCl (simulated gastric juices)", "type": "physicochemical", "conditions": "simulated gastric fluid, thermodynamic from solid, saturated solution, room temperature, HPLC, read-out: Solubility of taxifolin", "protocol": "The last most important point for comparing the production methods to one another is solubility in simulated gastric juices. That is, the solubility of the complex directly influences bioavailability, because only dissolved active ingredients can pass the epithelial cells of the GI tract\n10 mg taxifolin (Lavitol® 98.9% purity) was placed in a vial with 5 ml 0.1 N HCl to make a saturated solution and shaken for 60 minutes. The solution was then transferred into a vial by means of a syringe with an HPLC filter (0.22 μm) and then measured.\nSaturated solutions of the samples in 0.1 molar HCl solution were prepared at room temperature. The solution was then transferred to a vial by means of a syringe with an HPLC filter (0.22 μm), appropriately diluted and the taxifolin concentration of the solution was determined by HLPC."}, "[2]": {"assay": "Saturation solubility in dist. water (HPLC), β-CD complexes", "type": "physicochemical", "conditions": "distilled water, thermodynamic from solid, saturated solution shaken 60 minutes, HPLC DAD-254 nm, read-out: Solubility of taxifolin", "protocol": "Saturation Solubility in Dist. Water (HPLC)\nThe last most important point in terms of comparing the production methods to one another is solubility in distilled water. The solubility of the complex has a direct influence on bioavailability, because only dissolved complexes/active ingredients can pass the epithelial cells of the GI tract. Moreover, the samples were examined for rel. substances in order to identify possible degradation of the active ingredient during the production process.\n10 mg taxifolin (Lavitol® 98.9% purity) was placed in a vial with 5 ml dist. water to make a saturated solution and shaken for 60 minutes. The solution was then transferred to a vial using a syringe with an HPLC filter (0.22 μm) and then measured undiluted (HPLC DAD-254 nm).\n500 mg of the sample was placed in a vial with 6 ml dist. water to make a saturated solution and shaken for 60 minutes. The solution was then transferred to a vial using a syringe with an HPLC filter (0.22 μm), diluted 10:1 with distilled water to prevent oversaturation, and then measured (HPLC DAD-254 nm). The taxifolin concentration was calculated in mg/ml based on the peak area, taking into account the dilution."}, "[3]": {"assay": "Saturation solubility in dist. water (HPLC), γ-CD complexes", "type": "physicochemical", "conditions": "thermodynamic from solid, saturated solution shaken 60 minutes, HPLC DAD-254 nm", "experimental": "10 mg taxifolin (Lavitol® 98.9% purity) was placed in a vial with 5 ml dist. water to make a saturated solution and shaken for 60 minutes. The solution was then transferred to a vial by means of a syringe with an HPLC filter (0.22 μm) and then measured (HPLC DAD-254 nm).\n300 mg of the sample was placed in a vial with 5 ml dist. water to produce a saturated solution and shaken for 60 minutes. The solution was then transferred to a vial using a syringe with an HPLC filter (0.22 μm) and then measured undiluted (HPLC DAD-254 nm)."}, "[4]": {"assay": "Dissolution behaviour, USP apparatus II (paddle)", "type": "physicochemical", "conditions": "100 rpm; for Mean release: N=2, 500 ml 0.1 N HCl", "protocol": "In order to check the dissolution behaviour of the final formulations, dissolution studies of the cyclodextrin and the Eudragit formulation against pure taxifolin were carried out.\nMethod: In order to determine the dissolution behaviour, the usual procedure according to pharmacopoeia was chosen.\nUSP apparatus II (paddle); 100 rpm; medium: 500 ml 0.1 N HCl; 2 vessels per sample (N=2); 7 sampling points: 0 min, 5 min, 10 min, 15 min, 20 min, 30 min, 60 min; weighed in: formulation as a powder corresponding to 100 mg taxifolin; detection by HPLC\nThe following formulations were tested: • taxifolin (Ametis Lavitol®, 98.8% purity) • Eudragit® E CSE 2:1 (solid dispersion formulation) • FD β (cyclodextrin formulation)"}, "[5]": {"conditions": "in vivo; cited from earlier work"}, "[6]": {"assay": "Solubility of taxifolin in organic solvents", "type": "physicochemical"}, "[7]": {"test_system": "GABAA receptor β+/α− interface at the amino acid β-265ASN", "conditions": "cited from earlier work"}, "[8]": {"test_system": "GABAA receptor α+/β− interface", "conditions": "cited from earlier work"}}}
{"smiles": "O=C1c2c(O)cc(O)cc2O[C@H](c2ccc(O)c(O)c2)[C@H]1O", "note": "[Taxifolin reference, (+)taxifolin]", "values": [{"measurement": "solubility at 60 min", "setting": "[1]", "result": 693, "unit": "µg/mL"}, {"measurement": "solubility at 60 min", "setting": "[2]", "result": 750, "unit": "µg/mL"}, {"measurement": "solubility at 60 min", "setting": "[3]", "result": 750, "unit": "µg/mL"}, {"measurement": "Mean release", "setting": "[4]; 5 min", "result": 29, "unit": "%"}, {"measurement": "Release", "setting": "[4]; 5 min, vessel 1, 500 ml 0.1 N HCl", "result": 28.2, "unit": "%"}, {"measurement": "Release", "setting": "[4]; 5 min, vessel 2, 500 ml 0.1 N HCl", "result": 29.2, "unit": "%"}, {"measurement": "Mean release", "setting": "[4]; 10 min", "result": 46, "unit": "%"}, {"measurement": "Release", "setting": "[4]; 10 min, vessel 1, 500 ml 0.1 N HCl", "result": 46.4, "unit": "%"}, {"measurement": "Release", "setting": "[4]; 10 min, vessel 2, 500 ml 0.1 N HCl", "result": 44.8, "unit": "%"}, {"measurement": "Mean release", "setting": "[4]; 15 min, listed as taxifolin", "result": 60, "unit": "%"}, {"measurement": "Mean release", "setting": "[4]; 15 min, listed as taxifolin (reference)", "result": 60, "unit": "%"}, {"measurement": "Release", "setting": "[4]; 15 min, vessel 1, 500 ml 0.1 N HCl", "result": 61.1, "unit": "%"}, {"measurement": "Release", "setting": "[4]; 15 min, vessel 2, 500 ml 0.1 N HCl", "result": 58.7, "unit": "%"}, {"measurement": "Mean release", "setting": "[4]; 20 min", "result": 69, "unit": "%"}, {"measurement": "Release", "setting": "[4]; 20 min, vessel 1, 500 ml 0.1 N HCl", "result": 70.4, "unit": "%"}, {"measurement": "Release", "setting": "[4]; 20 min, vessel 2, 500 ml 0.1 N HCl", "result": 67.5, "unit": "%"}, {"measurement": "Mean release", "setting": "[4]; 30 min", "result": 79, "unit": "%"}, {"measurement": "Release", "setting": "[4]; 30 min, vessel 1, 500 ml 0.1 N HCl", "result": 80.8, "unit": "%"}, {"measurement": "Release", "setting": "[4]; 30 min, vessel 2, 500 ml 0.1 N HCl", "result": 77.4, "unit": "%"}, {"measurement": "Mean release", "setting": "[4]; 60 min", "result": 92, "unit": "%"}, {"measurement": "Release", "setting": "[4]; 60 min, vessel 1, 500 ml 0.1 N HCl", "result": 90.8, "unit": "%"}, {"measurement": "Release", "setting": "[4]; 60 min, vessel 2, 500 ml 0.1 N HCl", "result": 93.1, "unit": "%"}, {"measurement": "NOAEL level", "setting": "[5]", "result": 1500, "unit": "mg/kg"}, {"measurement": "Solubility in acetone and ethyl acetate", "setting": "[6]", "result": "very soluble"}, {"measurement": "Solubility in diethyl ether", "setting": "[6]", "result": "insoluble"}]}
{"smiles": "CCO", "note": "[ethanol]", "values": [{"measurement": "Concentration from which the low-affinity binding site is occupied", "setting": "[7]", "result": "≥ 50", "unit": "mM"}, {"measurement": "Concentration from which the high-affinity binding site is occupied", "setting": "[8]", "result": "≥ 3", "unit": "mM"}]}
